# Data taken from US20220388962A1 (Biohaven Therapeutics Ltd., priority 2019, published 2022).
# Structures can show the parent of a compound that is named as a salt.
# Target: TDP-43 (Homo sapiens, UniProt Q13148)
# Assay: TDP-43-DNA alpha-screen assay (bt-TAR-32 displacement)
# Assay type: binding
# Details: bt-TAR-32 0.125 nM, 15 ng/ml TDP-43
# Experimental: Alpha-screen assay: Displacement of bt-TG6 binding was measured using AlphaScreen technology as previously described (Cassel, J. A. et al., Journal of Biomolecular Screening, 2010, 15, 1099-1106; Cassel, J. A.; Reitz, A. B. et al. The effects of small molecule inhibitors of nucleic acid binding to TDP-43 on TDP-43 metabolism and function. Biochimie, 2012, 94, 1974-1981).
# Test compounds were diluted in assay buffer (25 mM Tris [pH 7.4], 0.1% bovine serum albumin [BSA], 0.1% Triton X-100) at 4× the desired final concentration. Dilutions of test compound (50 to 0.02 μM in half-log dilutions with a no compound control well) were pre-incubated with TDP-43 (5 μl of 60 ng/mL) pre-bound to AlphaScreen® anti-GST acceptor beads (5 μl of 40 μg/mL) in 15 μl volume for 30 minutes at 23° C. with shaking. Assays were initiated by the addition of 5 μl bt-TAR-32 (5′-CTGCTTTTTGCCTGTACTGGGTCTCTGTGGTT-3′) 0.5 nM pre-bound to AlphaScreen® strepavidin donor beads (40 μg/mL). After incubation in the dark at 23° C. for 90 minutes with shaking, the AlphaScreen® signal was measured on a Synergy 2 plate reader (BioTek, Winooski, Vt.). IC50 values were determined from nonlinear regression fits of the data to a Sigmoidal dose response variable slope model in GraphPad Prism. Final assay conditions are 25 mM Tris [pH 7.4], 0.1% bovine serum albumin [BSA], 0.100 Triton X-100, 15 ng/ml TDP-43, 0.125 nM bTAR32, 10 ug/ml […].
# TDP-43, sequence (Q13148 whole entry): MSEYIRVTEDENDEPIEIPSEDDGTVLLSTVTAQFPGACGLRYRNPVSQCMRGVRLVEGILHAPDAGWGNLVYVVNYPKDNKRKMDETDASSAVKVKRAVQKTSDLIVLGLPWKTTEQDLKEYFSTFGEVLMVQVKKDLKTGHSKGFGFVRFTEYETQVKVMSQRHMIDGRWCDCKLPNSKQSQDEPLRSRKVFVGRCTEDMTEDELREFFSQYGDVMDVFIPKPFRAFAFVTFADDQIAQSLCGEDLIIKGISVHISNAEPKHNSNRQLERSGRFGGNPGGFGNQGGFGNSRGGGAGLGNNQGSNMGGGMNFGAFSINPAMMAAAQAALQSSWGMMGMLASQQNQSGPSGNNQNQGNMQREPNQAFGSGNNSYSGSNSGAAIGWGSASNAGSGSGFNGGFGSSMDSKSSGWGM
row,SMILES,IC50 [nM]
1,"COc1ccc(-c2cc(NCCCN3CCC(O)CC3)c3ccccc3n2)cc1 [Example 75, 1-(3-((2-(4-Methoxyphenyl)quinolin-4-yl)amino)propyl)piperidin-4-ol]",590
2,COc1ccc(-c2cc(NCCC(=O)OC(C)(C)C)c3ccccc3n2)cc1 [Example 142],65300
3,"CC(C)C(N)C(=O)N1CCN(c2ccc(-c3cc(NCCCN(C)C)c4ccccc4n3)cc2)CC1 (stereo not drawn) [Example 91, 2-amino-1-(4-(4-(4-((3-(dimethylamino)propyl)amino)quinolin-2-yl)phenyl)piperazin-1-yl)-3-methylbutan-1-one]",90
4,CN(C)CCCNc1cc(-c2cccc(N3CCNCC3)c2)nc2ccccc12 [Example 98],140
5,[2H]C([2H])([2H])Oc1ccc(-c2cc(NCCCN)c3ccccc3n2)cc1 [Example 117],760
6,"COc1ccc(-c2cc(NCCCNCCCNS(C)(=O)=O)c3ccccc3n2)cc1 [Example 66, N-(3-((3-((2-(4-Methoxyphenyl)quinolin-4-yl)amino)propyl)amino)propyl) methanesulfonamide hydrochloride]",1410
7,"COc1ccc(-c2cc(NCCCNC3CCN(Cc4ccc(F)cc4)CC3)c3ccccc3n2)cc1 [Example 40, N^1-(1-(4-Fluorobenzyl)piperidin-4-yl)-N^3-(2-(4-methoxyphenyl)quinolin-4-yl)propane-1,3-diamine]",300
8,CN(C)CCCNc1cc(-c2ccc(N3CCN(C)C(=O)C3)cc2)nc2ccccc12 [Example 114],600
9,COc1cc2nc(-c3ccc(N4CCNCC4)cc3)cc(NCCCN)c2cc1OC [Example 82],30
10,"COc1ccc(-c2cc(NCCC3CCCCN3CCCN)c3ccccc3n2)cc1 (stereo not drawn) [Example 39, N-(2-(1-(3-Aminopropyl)piperidin-2-yl)ethyl)-2-(4-methoxyphenyl) quinolin-4-amine dihydrochloride]",130
11,"COc1ccc(-c2cc(NCCCN(C)CC3CCN(C(=O)OC(C)(C)C)CC3)c3ccccc3n2)cc1 [Example 47, tert-Butyl 4-{[(3-{[2-(4-methoxyphenyl)quinolin-4-yl]amino}propyl)(methyl)amino]methyl}piperidine-1-carboxylate]",4050
12,NCCCNc1cc(-c2ccc(C3CCNCC3)cc2)nc2ccccc12 [Example 95],110
13,"COc1ccc(-c2cc(NCCCNCCC3CCCCN3C(=O)OC(C)(C)C)c3ccccc3n2)cc1 (stereo not drawn) [Example 44, tert-Butyl 2-(2-((3-((2-(4-methoxyphenyl)quinolin-4-yl)amino)propyl)amino)ethyl)piperidine-1-carboxylate]",2070
14,"COc1ccc(-c2cc(NCCCNCCCNC(=O)OC(C)(C)C)c3ccccc3n2)cc1 [Example 6, tert-Butyl N-{3-[(3-{[2-(4-methoxyphenyl)quinolin-4yl]amino}propyl)amino]propyl}carbamate]",760
15,"COc1ccc(-c2cc(NCCCNCCC3CCCCN3)c3ccccc3n2)cc1 (stereo not drawn) [Example 45, N^1-(2-(4-methoxyphenyl)quinolin-4-yl)-N^3-(2-(piperidin-2-yl)ethyl)propane-1,3-diamine]",710
16,"COc1ccc(-c2cc(NCCN3CCN(C)CC3)c3ccccc3n2)cc1 [Example 74, 2-(4-Methoxyphenyl)-N-(2-(4-methylpiperazin-1-yl)ethyl)quinolin-4-amine]",1850
17,"COc1ccc(-c2cc(NCCCN3CC4CCN(C(=O)OC(C)(C)C)CC4C3)c3ccccc3n2)cc1 (stereo not drawn) [Example 35, tert-Butyl 2-(3-((2-(4-methoxyphenyl)quinolin-4-yl)amino)propyl) hexahydro-1H-pyrrolo[3,4-c]pyridine-5(6H)-carboxylate]",2670

# The remaining lines, values ahead:
row,IC50 [nM],SMILES
1,90,CC(N)C(=O)N1CCN(c2ccc(-c3cc(NCCCN(C)C)c4ccccc4n3)cc2)CC1 (stereo not drawn) [Example 92]
2,1470,"COc1ccc(-c2cc(NCCCN3CCC4(C3)CN(C(=O)OC(C)(C)C)C4)c3ccccc3n2)cc1 [Example 41, tert-Butyl 6-(3-((2-(4-methoxyphenyl)quinolin-4-yl)amino)propyl)-2,6-diaza spiro[3.4]octane-2-carboxylate]"
3,180,"COc1ccc(-c2cc(NCCCN(CCCN(C)C)CC3CC3)c3ccccc3n2)cc1 [Example 17, N^1-(Cyclopropylmethyl)-N^1-(3-((2-(4-methoxyphenyl)quinolin-4-yl)amino)propyl)-N^3,N^3-dimethylpropane-1,3-diamine]"
4,290,"COc1ccc(-c2cc(NCCC3CCCCN3CCCN3C(=O)c4ccccc4C3=O)c3ccccc3n2)cc1 (stereo not drawn) [Example 67, 2-(3-(2-(2-((2-(4-Methoxyphenyl)quinolin-4-yl)amino)ethyl)piperidin-1-yl)propyl) isoindoline-1,3-dione]"
5,1110,"COc1ccc(-c2cc(NCCCN(C)Cc3ccc(N)nc3)c3ccccc3n2)cc1 [Example 24, N^1-((6-Aminopyridin-3-yl)methyl)-N^3-(2-(4-methoxyphenyl)-quinolin-4-yl)-N^1-methylpropane-1,3-diamine]"
6,40,"NCCCNc1cc(-c2ccc(-n3cc4c(n3)CNC4)cc2)nc2ccccc12 [Example 84, N^1-(2-(4-(5,6-dihydropyrrolo[3,4-c]pyrazol-2(4H)-yl)phenyl)quinolin-4-yl)propane-1,3-diamine]"
7,2080,"COc1ccc(-c2cc(NCCCN3CC4CN(C(=O)OC(C)(C)C)CC4C3)c3ccccc3n2)cc1 (stereo not drawn) [Example 27, tert-butyl 5-(3-((2-(4-methoxyphenyl)quinolin-4-yl)amino)propyl)hexahydro-pyrrolo[3,4-c]pyrrole-2(1H)-carboxylate]"
8,180,COc1ccc(-c2cc(NC3CCN(C4CCC(N)CC4)CC3)c3ccccc3n2)cc1 (stereo not drawn) [Example 102]
9,64500,COc1ccc(-c2cc(NC3CCC(F)(F)CC3)c3ccccc3n2)cc1 [Example 141]
10,130,COc1ccc(-c2cc(N[C@H]3C[C@H](N)C3)c3cc(OC)c(OC)cc3n2)cc1 [Example 97]
11,680,"COc1ccc(-c2cc(NCCCNCc3cncn3C)c3ccccc3n2)cc1 [Example 22, N^1-(2-(4-Methoxyphenyl)quinolin-4-yl)-N^3-((1-methyl-1H-imidazol-5-yl)methyl)propane-1,3-diamine]"
12,260,CN(C)CCCNc1cc(-c2cnn(C3CCN(C)CC3)c2)nc2ccccc12 [Example 107]
13,80,"CNCCCCN(C)CCCNc1cc(-c2ccc(OC)cc2)nc2ccccc12 [Example 12, N^1-(3-((2-(4-Methoxyphenyl)quinolin-4-yl)amino)propyl)-N^1,N^4-dimethyl butane-1,4-diamine trihydrochloride]"
14,150,"COc1ccc(-c2cc(NCCCN3CC4CCNCC4C3)c3ccccc3n2)cc1 (stereo not drawn) [Example 36, N-(3-(Hexahydro-1H-pyrrolo[3,4-c]pyridin-2(3H)-yl)propyl)-2-(4-methoxyphenyl)quinolin-4-amine dihydrochloride]"
15,6560,COc1ccc(-c2cc(NCCCN(C)C)c3cc4c(cc3n2)OC(F)(F)O4)cc1 [Example 140]
16,1260,"COc1ccc(-c2cc(NCCCN(C)CCCNS(=O)(=O)c3cccc4c(N(C)C)cccc34)c3ccccc3n2)cc1 [Example 78, 5-(dimethylamino)-N-{3-[(3-{[2-(4-methoxyphenyl)quinolin-4 yl]amino}propyl)(methyl)amino]propyl}naphthalene-1-sulfonamide]"
17,640,NCCCNc1cc(-c2ccc3c(c2)CCO3)nc2ccccc12 [Example 116]
18,160,NCCCNc1cc(-c2cnn(CCN3CCCC3)c2)nc2ccccc12 [Example 100]
19,220,"COc1ccc(-c2cc(NCCCNCCCN3CCCCC3)c3ccccc3n2)cc1 [Example 4, N^1-(2-(4-Methoxyphenyl)quinolin-4-yl)-N^3-(3-(piperidin-1-yl)propyl) propane-1,3-diamine trihydrochloride]"
20,30,N[C@H]1C[C@@H](Nc2cc(-c3ccc(N4CCNCC4)cc3)nc3ccccc23)C1 [Example 83]
21,20,COc1cc2nc(-c3ccc(N4CCNCC4)cc3)cc(N[C@H]3C[C@@H](N)C3)c2cc1OC [Example 79]
22,100,"COc1ccc(-c2cc(NCCCNCC3CCN(CC4CC4)CC3)c3ccccc3n2)cc1 [Example 71, N^1-((1-(Cyclopropylmethyl)piperidin-4-yl)methyl)-N^3-(2-(4-methoxyphenyl)quinolin-4-yl)propane-1,3-diamine trihydrochloride]"
23,3600,"COc1ccc(-c2cc(NC3CCN(CCCN4C(=O)c5ccccc5C4=O)CC3)c3ccccc3n2)cc1 [Example 64, 2-(3-(4-((2-(4-Methoxyphenyl)quinolin-4-yl)amino)piperidin-1-yl)propyl) isoindoline-1,3-dione dihydrochloride]"
24,40,COc1cc2nc(-c3ccc(N4CCNCC4)cc3)cc(N[C@H]3CC[C@@H](N)CC3)c2cc1OC [Example 85]
25,1570,NCCCNc1cc(C2=CCCCC2)nc2ccccc12 [Example 128]
